Reference: EP2303911B1, “A SYNTHETIC PEPTIDE CONSISTING OF BONE FORMING PEPTIDE 2(BFP 2) FOR STIMULATING OSTEOBLAST DIFFERENTIATION, AND PHARMACEUTICAL COMPOSITION COMPRISING THE SYNTHETIC PEPTIDE” (Industry Foundation Of Chonnam National University, priority 2008, dated 2012)
No end group written: not given here.

Test system: cells
Assay: MTT assay for cytotoxicity
Assay type: cell-based
Settings: within a range of used concentrations, FIG. 3

## VEHDKEFFHPRYHHR [BFP 2, Val-Glu-His-Asp-Lys-Glu-Phe-Phe-His-Pro-Arg-Tyr-His-His-Arg]
  cytotoxicity: not toxic to cells
